According to patent US20080312277A1, “Gpr41 and Modulators Thereof for the Treatment of Insulin-Related Disorders” (priority 2004, published 2008):

Legend:
male C57b1/6 mice = assay: Oral glucose tolerance test (oGTT); format: in vivo; settings: p.o. 30 min before oral dextrose 3 g/kg, FIG. 8
Procedure: For the oGTT, male C57b1/6 mice were fasted for about 18 hours and randomly grouped to receive the compounds indicated in FIG. 8 at the indicated doses, or vehicle (PET which contains 80% PEG, 10% Tween80, and 10% Ethanol). The indicated compound(s) were delivered orally via a gavage needle (p.o. volume at 100 μl). Thirty minutes after administration of the compound(s) or vehicle, mice were administered orally with dextrose at 3 g/kg dose. Levels of blood glucose were determined at several time points using Glucometer Elite XL (Bayer).

GPR41 = biological target: T1, GPR41 (Homo sapiens, UniProt O14843); settings: Brown et al., J. Biol. Chem. 278:11312-11319 (2003); cited from earlier work
T1 sequence (O14843 1-346): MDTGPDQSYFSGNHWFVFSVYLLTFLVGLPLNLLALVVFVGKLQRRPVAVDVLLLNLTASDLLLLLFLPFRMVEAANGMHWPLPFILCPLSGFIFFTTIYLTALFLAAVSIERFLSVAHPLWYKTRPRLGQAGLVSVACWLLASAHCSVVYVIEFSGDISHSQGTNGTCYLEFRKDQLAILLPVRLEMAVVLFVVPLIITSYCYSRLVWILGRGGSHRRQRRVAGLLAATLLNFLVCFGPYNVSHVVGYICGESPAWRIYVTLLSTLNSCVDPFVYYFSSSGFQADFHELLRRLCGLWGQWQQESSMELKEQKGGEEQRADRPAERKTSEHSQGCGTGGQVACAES

Compound: CC1=C(C(=O)Nc2ccccc2C)C(c2ccoc2)C2=C(CCCC2=O)N1 (stereo not drawn) [Compound 4, 4-Furan-3-yl-2-methyl-5-oxo-1,4,5,6,7,8-hexahydro-quinoline-3-carboxylic acid o-tolylamide]
- effect on the glycemic lowering effect of Compound B111 in the oGTT (plasma glucose) (male C57b1/6 mice; used in conjunction with Compound B111): reversed the glycemic lowering effect of Compound B111

Compound: CCC(=O)O [propionate]
- activation of GPR41 (GPR41): activated

Compound: CC(C)c1noc(C2CCN(c3ncnc(Nc4ccc(S(C)(=O)=O)cc4F)c3[N+](=O)[O-])CC2)n1 [Compound B111, (2-Fluoro-4-methanesulfonyl-phenyl)-{6-[4-(3-isopropyl-[1,2,4]oxadiazol-5-yl)-piperidin-1-yl]-5-nitro-pyrimidin-4-yl}-amine]
- glycemic effect in the oGTT (male C57b1/6 mice; used alone): glycemic lowering effect
